According to paper PMC3462775 (PLoS ONE, 2012):
“Also recorded” adds a separate entry of the source.

Assays:
elastase = assay: Pseudomonas aeruginosa elastase (3 µg, Calbiochem) in 300 µl 20 mM Tris-HCl, 1 mM CaCl2 pH 7.8; details: 37°C, up to 24 h
aureolysin = assay: Staphylococcus aureus aureolysin (3 µg, BioCol GmbH) in 300 µl 20 mM Tris-HCl, 1 mM CaCl2 pH 7.8; details: 37°C, up to 24 h

## KKIRVRLSA
elastase
  cleaved bond: R6-L7, 5 h; also recorded: S8-A9, 5 h
  not cleaved: resisted degradation by elastase for 24 h
aureolysin
  cleaved bond: R6-L7, 1h; also recorded: S8-A9, 1h
  not cleaved: remaining unaltered after 24 h of incubation
